Our source for the % of inhibition, % of control and % binding values is ChEMBL document CHEMBL5465560, “Selectivity Literature for EUbOPEN Chemogenomic Library” (2024).

Molecules are shown by their SMILES.

The target in test [1] is T1, Serine/threonine-protein kinase TBK1 (Homo sapiens) (UniProt Q9UHD2).
T1 sequence (whole entry): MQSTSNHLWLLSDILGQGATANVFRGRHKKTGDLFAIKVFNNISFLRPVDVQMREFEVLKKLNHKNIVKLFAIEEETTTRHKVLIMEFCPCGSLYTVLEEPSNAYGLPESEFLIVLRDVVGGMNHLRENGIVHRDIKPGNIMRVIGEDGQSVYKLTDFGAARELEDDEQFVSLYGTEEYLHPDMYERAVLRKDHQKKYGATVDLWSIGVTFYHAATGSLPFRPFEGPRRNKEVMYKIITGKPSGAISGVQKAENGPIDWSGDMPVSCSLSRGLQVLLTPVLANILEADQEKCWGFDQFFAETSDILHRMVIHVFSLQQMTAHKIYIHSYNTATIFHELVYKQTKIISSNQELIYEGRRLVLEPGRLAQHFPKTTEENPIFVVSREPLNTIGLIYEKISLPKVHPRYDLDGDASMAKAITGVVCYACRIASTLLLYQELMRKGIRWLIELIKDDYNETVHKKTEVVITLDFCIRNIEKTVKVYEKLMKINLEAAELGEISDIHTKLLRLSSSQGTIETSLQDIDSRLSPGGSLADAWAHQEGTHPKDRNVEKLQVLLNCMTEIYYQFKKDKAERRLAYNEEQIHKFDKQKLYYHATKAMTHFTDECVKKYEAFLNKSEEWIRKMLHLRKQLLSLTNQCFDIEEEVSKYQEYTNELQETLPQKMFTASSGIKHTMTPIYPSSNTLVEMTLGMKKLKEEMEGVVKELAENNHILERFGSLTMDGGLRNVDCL
The experiment in a line: Selectivity interaction (SelectScreen profiling (Invitrogen)) EUB0000607a TBK1. The conditions noted are these: at 2 µM.

Test [2] addresses T2, Mitogen-activated protein kinase kinase kinase 3 (Homo sapiens) (UniProt Q99759).
T2 sequence (whole entry): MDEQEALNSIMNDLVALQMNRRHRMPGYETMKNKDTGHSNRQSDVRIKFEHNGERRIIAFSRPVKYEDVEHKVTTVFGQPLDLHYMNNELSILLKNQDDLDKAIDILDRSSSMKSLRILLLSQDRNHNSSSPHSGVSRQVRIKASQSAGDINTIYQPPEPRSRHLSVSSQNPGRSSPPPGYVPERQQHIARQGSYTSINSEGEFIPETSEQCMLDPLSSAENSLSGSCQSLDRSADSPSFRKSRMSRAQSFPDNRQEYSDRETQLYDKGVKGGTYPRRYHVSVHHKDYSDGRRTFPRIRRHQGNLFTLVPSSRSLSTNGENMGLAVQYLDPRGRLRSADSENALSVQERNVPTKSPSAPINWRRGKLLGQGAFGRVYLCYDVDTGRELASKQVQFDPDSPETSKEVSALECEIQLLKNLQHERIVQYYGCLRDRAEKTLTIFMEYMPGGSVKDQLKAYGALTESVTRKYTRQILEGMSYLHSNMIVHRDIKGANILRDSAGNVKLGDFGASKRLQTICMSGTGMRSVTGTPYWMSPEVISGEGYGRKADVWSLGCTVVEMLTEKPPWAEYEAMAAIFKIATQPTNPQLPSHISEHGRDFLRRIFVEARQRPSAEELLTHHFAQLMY
Nature of the test: Selectivity interaction (ActivX KiNativ screen (kinase selectivity in THP-1 cell lysates)) EUB0000639a MAP3K3. The conditions noted are these: lysate, at 0.01 µM. The class given is subcellular.

In test [3] the target is CDK2/Cyclin A2 (Homo sapiens) (UniProt P24941+P20248). The experiment in a line: (§1) Selectivity interaction (ProQinase) EUB0000171b CDK2. Type of test: protein-complex assay.
For test [4], the target named is Cyclin-dependent kinase 2/cyclin E1 (Homo sapiens) (UniProt P24864+P24941). The test is described as §1. Type of test: protein-complex assay.
For test [5], the target named is T3, Dual specificity mitogen-activated protein kinase kinase 5 (Homo sapiens) (UniProt Q13163).
T3 sequence (whole entry): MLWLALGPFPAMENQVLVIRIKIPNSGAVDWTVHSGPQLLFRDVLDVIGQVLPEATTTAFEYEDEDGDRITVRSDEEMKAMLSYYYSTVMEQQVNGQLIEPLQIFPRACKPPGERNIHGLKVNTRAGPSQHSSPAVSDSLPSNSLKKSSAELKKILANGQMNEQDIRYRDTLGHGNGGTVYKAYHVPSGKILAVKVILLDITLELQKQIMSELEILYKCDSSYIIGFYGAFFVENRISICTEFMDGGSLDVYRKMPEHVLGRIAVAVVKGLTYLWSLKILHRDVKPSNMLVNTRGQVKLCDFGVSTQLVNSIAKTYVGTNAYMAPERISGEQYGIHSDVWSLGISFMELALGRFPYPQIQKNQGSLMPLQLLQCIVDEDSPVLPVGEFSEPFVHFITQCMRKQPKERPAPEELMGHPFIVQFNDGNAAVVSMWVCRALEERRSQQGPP
Nature of the test: Selectivity interaction (Ambit KINOMEscan and KiNATiv profiling in Jurkat cells) EUB0000090b MAP2K5. Type of test: cell-based. The conditions noted are these: at 1 µM.

In test [6] the target is SRSF protein kinase 3 (Homo sapiens) (UniProt Q9UPE1). The experiment in a line: Selectivity interaction (Ambit KINOMEscan and KiNATiv profiling in Jurkat cells) EUB0000090b SRPK3. The class given is cell-based. The conditions noted are these: at 1 µM.
Sequence of SRSF protein kinase 3 (Homo sapiens) (Q9UPE1 whole entry): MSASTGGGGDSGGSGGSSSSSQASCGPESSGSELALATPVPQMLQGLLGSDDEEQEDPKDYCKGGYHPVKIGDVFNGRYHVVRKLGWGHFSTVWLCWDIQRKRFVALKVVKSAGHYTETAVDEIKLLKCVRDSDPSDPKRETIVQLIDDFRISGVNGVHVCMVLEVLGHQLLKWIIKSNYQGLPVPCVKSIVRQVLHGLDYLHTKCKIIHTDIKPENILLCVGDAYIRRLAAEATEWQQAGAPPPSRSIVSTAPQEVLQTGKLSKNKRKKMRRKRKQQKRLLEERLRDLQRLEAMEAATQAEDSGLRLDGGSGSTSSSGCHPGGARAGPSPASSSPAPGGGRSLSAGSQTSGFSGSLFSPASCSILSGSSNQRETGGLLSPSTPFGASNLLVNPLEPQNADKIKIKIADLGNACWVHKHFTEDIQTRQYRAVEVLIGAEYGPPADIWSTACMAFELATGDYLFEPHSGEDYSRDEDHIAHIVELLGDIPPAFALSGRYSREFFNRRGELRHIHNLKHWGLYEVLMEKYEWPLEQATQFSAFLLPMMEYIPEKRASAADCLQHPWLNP
Test [7] has as its target Serine/threonine-protein kinase PLK3 (Homo sapiens, UniProt Q9H4B4). Nature of the test: Selectivity interaction (KinomeScan (DiscoverX)) EUB0000229b PLK3. The conditions noted are these: at 10 µM.

Sequence of Serine/threonine-protein kinase PLK3 (Q9H4B4 whole entry, looked up): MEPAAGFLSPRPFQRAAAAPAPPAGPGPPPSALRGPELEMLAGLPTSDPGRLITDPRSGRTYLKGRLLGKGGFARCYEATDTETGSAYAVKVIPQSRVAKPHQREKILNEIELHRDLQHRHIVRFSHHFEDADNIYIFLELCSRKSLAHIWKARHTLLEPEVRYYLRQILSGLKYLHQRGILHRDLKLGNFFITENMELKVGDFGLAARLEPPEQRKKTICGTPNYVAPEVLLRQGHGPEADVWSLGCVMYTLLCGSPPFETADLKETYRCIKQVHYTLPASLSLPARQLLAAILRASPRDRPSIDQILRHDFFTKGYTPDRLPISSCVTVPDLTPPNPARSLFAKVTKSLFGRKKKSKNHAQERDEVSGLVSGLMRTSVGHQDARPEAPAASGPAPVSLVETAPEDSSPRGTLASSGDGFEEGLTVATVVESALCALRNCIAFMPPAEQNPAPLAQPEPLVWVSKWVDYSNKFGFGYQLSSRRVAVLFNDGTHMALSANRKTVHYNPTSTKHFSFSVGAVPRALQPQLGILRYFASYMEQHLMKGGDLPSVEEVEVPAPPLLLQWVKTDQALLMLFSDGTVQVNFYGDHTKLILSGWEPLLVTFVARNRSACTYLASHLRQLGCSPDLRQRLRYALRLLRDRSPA

With `CNC(=O)Nc1ccc(-c2nc(N3CC4CCC(C3)O4)c3cnn(C4CCC5(CC4)OCCO5)c3n2)cc1`, the % of inhibition in test [1] worked out at 2%.
As for `CC[C@@H]1[C@H](F)C(=O)N[C@@H]1COc1nccc2cc(C(N)=O)c(OC)cc12` [ZIMLOVISERTIB], the % of inhibition in test [2] was -6.1%.
With `C=CC(=O)Nc1cccc(C(=O)Nc2ccc(Nc3cc(-c4[nH]c(SC)nc4C)ccn3)cc2)c1`, the % of control came out at 78% in test [3] (at 1 µM), 56% in test [3] (at 5 µM), 88% in test [4] (at 1 µM) and 62% in test [4] (at 5 µM).
In the case of `CN(C)C/C=C/C(=O)Nc1ccc(C(=O)N2CCCC(Nc3ncc(Cl)c(-c4c[nH]c5ccccc45)n3)C2)cc1` (centres undefined), the % of control in test [5] is 97%; in test [6], 93%.
As for `COc1cc(N(C)c2ccnc3ccc(C(F)(F)F)cc23)cc(OC)c1OC`, the % binding in test [7] came to 74%.
